What was measured:
[1] = Plasma clearance in Sprague-Dawley rat at 1 mg/kg, iv or 2 mg/kg, po administered via gavage by LC-MS/MS analysis; format: ADME, organism-based
[2] = Selectivity ratio of IC50 for human CYP11B1-8C7 expressed in Chinese hamster V79 cells to IC50 for human CYP11B2-CLE9 expressed in Chinese hamster V79 cells
[3] = target: Cytochrome P450 2C9 (Homo sapiens, UniProt P11712); assay: Inhibition of hepatic CYP2C9 (unknown origin); format: ADME
[4] = target: Cytochrome P450 3A4 (Homo sapiens, UniProt P08684); assay: Inhibition of hepatic CYP3A4 (unknown origin); format: ADME
Sequence of Cytochrome P450 3A4 (P08684 whole entry): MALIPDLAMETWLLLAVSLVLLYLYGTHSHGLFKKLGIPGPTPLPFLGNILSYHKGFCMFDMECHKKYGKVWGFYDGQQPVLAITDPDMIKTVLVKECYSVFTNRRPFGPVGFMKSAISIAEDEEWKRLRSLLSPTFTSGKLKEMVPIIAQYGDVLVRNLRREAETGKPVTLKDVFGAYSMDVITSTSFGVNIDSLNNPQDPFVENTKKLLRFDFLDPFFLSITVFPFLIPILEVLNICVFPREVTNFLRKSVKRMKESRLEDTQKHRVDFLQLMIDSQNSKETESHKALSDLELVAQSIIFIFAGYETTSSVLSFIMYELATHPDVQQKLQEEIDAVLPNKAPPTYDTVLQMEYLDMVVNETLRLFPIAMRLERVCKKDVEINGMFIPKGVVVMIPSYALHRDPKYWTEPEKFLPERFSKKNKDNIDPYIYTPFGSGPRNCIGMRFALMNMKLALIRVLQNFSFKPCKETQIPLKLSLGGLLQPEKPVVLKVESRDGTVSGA

[5] = target: T1, Steroid 17-alpha-hydroxylase/17,20 lyase (Homo sapiens, UniProt P05093); assay: Inhibition of human CYP17 expressed in African green monkey COS7 cells using 17-hydroxypregnenolone as substrate preincubated for 1 hr followed by substrate addition measured after 3 hrs by EIA; format: cell-based
T1 sequence (P05093 whole entry): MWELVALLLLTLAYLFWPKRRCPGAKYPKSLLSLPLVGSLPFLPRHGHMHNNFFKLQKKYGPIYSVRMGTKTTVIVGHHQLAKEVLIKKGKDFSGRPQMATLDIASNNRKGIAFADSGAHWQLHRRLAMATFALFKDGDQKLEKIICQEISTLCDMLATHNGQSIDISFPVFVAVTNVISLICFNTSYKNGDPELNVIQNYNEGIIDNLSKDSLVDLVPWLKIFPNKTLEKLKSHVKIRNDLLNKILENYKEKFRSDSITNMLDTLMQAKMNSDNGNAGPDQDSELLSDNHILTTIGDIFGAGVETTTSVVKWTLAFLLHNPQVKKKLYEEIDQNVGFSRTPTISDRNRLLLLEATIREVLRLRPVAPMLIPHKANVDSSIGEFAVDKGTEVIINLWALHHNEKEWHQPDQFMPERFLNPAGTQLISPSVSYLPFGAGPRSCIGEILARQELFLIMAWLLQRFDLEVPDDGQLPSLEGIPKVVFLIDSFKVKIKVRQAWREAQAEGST

[6] = target: Cytochrome P450 2D6 (Homo sapiens, UniProt P10635); assay: Inhibition of hepatic CYP2D6 (unknown origin); format: ADME
Sequence of Cytochrome P450 2D6 (P10635 whole entry): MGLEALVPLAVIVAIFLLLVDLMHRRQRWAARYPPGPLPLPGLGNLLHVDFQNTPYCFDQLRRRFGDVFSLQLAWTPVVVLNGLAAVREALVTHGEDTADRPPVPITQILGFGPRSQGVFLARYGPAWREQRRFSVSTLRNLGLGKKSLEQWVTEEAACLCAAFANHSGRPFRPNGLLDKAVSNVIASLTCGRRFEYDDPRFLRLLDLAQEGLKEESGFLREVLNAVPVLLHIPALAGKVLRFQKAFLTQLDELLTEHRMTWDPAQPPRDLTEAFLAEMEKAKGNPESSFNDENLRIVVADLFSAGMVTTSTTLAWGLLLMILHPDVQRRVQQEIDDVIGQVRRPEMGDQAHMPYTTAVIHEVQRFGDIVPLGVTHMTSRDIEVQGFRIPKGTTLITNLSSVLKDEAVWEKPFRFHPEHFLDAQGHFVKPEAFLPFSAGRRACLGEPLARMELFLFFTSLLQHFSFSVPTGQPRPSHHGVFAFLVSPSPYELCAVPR

[7] = target: T2, Aromatase (Homo sapiens, UniProt P11511); assay: Inhibition of CYP19 (unknown origin) using MFC as substrate and NADPH as cofactor preincubated for 10 mins with cofactor followed by substrate/enzyme addition measured after 30 mins
T2 sequence (P11511 whole entry): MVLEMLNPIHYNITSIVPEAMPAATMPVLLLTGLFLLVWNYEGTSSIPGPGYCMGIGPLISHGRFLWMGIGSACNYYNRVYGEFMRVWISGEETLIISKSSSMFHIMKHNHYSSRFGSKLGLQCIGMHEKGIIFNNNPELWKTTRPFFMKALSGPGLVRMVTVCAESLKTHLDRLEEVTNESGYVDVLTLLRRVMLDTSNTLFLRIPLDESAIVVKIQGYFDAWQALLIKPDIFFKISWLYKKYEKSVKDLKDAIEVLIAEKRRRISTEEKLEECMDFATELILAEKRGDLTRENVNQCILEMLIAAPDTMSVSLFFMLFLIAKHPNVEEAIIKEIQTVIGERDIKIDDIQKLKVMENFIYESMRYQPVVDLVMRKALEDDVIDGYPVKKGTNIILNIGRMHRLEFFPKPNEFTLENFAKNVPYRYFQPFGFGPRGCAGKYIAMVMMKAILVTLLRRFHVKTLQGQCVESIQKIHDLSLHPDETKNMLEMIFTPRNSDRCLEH

[8] = Selectivity ratio of IC50 for hepatic CYP2D6 (unknown origin) to IC50 for human CYP11B2-CLE9 expressed in Chinese hamster V79 cells
[9] = Selectivity ratio of IC50 for hepatic CYP2C9 (unknown origin) to IC50 for human CYP11B2-CLE9 expressed in Chinese hamster V79 cells
[10] = target: T3, Steroid 21-hydroxylase (Homo sapiens, UniProt P08686); assay: Inhibition of human CYP21 expressed in African green monkey COS7 cells using […] as substrate preincubated for 1 hr followed by substrate addition measured for 3 hrs by HTRF assay; format: cell-based
T3 sequence (P08686 whole entry): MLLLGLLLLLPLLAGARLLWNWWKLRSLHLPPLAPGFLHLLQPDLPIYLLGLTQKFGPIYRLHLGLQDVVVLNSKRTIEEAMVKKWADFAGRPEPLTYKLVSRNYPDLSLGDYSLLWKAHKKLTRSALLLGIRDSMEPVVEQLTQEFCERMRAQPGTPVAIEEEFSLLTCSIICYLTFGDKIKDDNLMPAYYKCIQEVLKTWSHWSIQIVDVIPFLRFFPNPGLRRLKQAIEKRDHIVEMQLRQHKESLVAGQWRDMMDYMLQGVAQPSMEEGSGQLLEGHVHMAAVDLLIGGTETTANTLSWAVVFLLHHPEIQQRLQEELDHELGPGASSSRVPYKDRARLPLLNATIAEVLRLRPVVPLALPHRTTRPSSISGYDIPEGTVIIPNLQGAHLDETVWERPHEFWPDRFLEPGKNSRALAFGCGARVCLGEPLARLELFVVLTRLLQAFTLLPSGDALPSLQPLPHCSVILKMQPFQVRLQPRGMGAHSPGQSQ

[11] = target: T4, Cytochrome P450 11B2, mitochondrial (Rattus norvegicus, UniProt P30099); assay: Inhibition of rat CYP11B2-1F4 expressed in Chinese hamster V79 cells using 11-deoxycorticosterone as substrate preincubated for 1 hr followed by substrate addition measured for 3 hrs by HTRF assay; format: cell-based
T4 sequence (P30099 whole entry): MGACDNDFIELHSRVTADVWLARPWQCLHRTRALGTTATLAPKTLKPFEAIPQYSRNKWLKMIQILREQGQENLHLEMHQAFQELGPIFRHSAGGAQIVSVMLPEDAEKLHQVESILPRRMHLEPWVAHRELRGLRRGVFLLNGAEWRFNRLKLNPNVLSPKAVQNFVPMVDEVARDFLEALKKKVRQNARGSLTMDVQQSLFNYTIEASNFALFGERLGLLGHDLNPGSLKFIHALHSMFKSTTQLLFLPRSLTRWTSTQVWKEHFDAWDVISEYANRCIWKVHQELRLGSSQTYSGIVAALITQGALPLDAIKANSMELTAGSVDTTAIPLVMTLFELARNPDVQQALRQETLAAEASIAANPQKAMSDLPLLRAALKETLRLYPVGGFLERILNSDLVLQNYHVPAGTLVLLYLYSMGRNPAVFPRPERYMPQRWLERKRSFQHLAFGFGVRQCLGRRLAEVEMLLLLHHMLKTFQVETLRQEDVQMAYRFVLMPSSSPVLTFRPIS

[12] = Intrinsic clearance in rat liver microsomes at […] preincubated for 10 mins followed by NADPH addition measured after 45 mins by LC-MS analysis; format: ADME, microsome; details: read-out: CLH
[13] = Oral bioavailability in Sprague-Dawley rat at 2 mg/kg administered via gavage by LC-MS/MS analysis; format: ADME, organism-based; details: in vivo
[14] = system: Rattus norvegicus; assay: Dose normalized AUC in Sprague-Dawley rat at 2 mg/kg, po administered via gavage by LC-MS/MS analysis; format: ADME, organism-based; details: in vivo

Sequence of Cytochrome P450 2C9 (P11712 whole entry): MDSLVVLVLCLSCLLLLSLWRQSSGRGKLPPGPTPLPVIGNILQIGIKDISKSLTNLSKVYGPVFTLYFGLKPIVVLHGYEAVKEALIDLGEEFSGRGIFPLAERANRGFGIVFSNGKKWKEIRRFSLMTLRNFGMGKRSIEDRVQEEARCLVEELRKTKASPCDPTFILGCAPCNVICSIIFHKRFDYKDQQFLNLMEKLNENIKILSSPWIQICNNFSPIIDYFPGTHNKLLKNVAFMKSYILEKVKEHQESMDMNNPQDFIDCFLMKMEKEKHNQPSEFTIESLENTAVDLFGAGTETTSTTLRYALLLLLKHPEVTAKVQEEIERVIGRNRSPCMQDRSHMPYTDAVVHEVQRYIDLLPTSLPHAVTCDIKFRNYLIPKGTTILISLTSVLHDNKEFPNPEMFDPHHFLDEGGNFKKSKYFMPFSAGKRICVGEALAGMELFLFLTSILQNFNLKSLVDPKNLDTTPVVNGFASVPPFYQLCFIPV

- clearance [1]: 14 mL/min/kg
- IC50 [3]: 9.1 µM
- IC50 [4]: 43 µM
- IC50 [5]: > 10 µM
- IC50 [6]: 2800 nM
- IC50 [7]: 4.6 µM
- IC50 [10]: > 10 µM
- IC50 [11]: 2.2 nM
- CLint scaled [12]: < 20 mL/min/kg
- bioavailability [13]: 28%
- AUC/dose [14]: 0.85 µM·kg·h/mg
Compound: CC(C)(O)c1cncc(-n2ncc3c(C(F)(F)F)cccc32)c1
- Ratio IC50 [2]: 44
- Ratio IC50 [8]: >1000
- Ratio IC50 [9]: >4000

Reference: ChEMBL document CHEMBL4028827, “Discovery of indazole aldosterone synthase (CYP11B2) inhibitors as potential treatments for hypertension” (Bioorg Med Chem Lett, 2017)
